From publication PMC8360000 (Clinical Pharmacology and Therapeutics, 2021)
Where “and” joins values, the source holds several entries; their conditions need not be identical. Identical values can stand only once.

Legend:
P-gp = experiment: IVIVE of Kp,uu,brain from in vitro ER using REF; set-up: species or system human; details: human, brain (unbound, Kp,uu)
P‐gp [1] = experiment: IVIVE of Kp,uu,brain from in vitro ER using REF; set-up: species or system human; details: for Kp,uu,brain,pred(method 1) Mean ± SD / Kp,uu,brain,pred(method 1) Individual: predicted from in vitro ER and REF; for Kp,uu,brain,pred(method 1) Mean ± SD: four experiments; for Kp,uu,brain,pred(method 1) Individual: individual experiments 1-4
P‐gp [2] = details: humans, cyclosporine as inhibitor; cited from earlier work
P‐gp [3] = experiment: IVIVE of intrinsic CL and Kp,uu,brain using REF and BMEC protein content; set-up: species or system human; details: for Kp,uu,brain,pred(method 2): 5C model

| Kp uu (P-gp) | SMILES | Kp,uu,brain,pred(method 1) Mean ± SD (P‐gp [1]) | Kp,uu,brain,pred(method 1) Individual (P‐gp [1]) | K1 (cerebral uptake CL), impact of P‐gp inhibition (P‐gp [2]) | Kp,uu,brain,pred(method 2) (P‐gp [3]; mean ± standard deviation) | P/O (predicted/observed Kp,uu,brain ratio) (P‐gp [1]; method 1) | IVIV Extrapolated CLi (P‐gp [3]; mean ± standard deviation, scaled with BMEC protein content) [mL/min] | P/O (predicted/observed value) (P‐gp [3]; method 2) |
| --- | --- | --- | --- | --- | --- | --- | --- | --- |
| 1.3 | CCN(CC)CCNC(=O)c1cc(Cl)c(N)cc1OC [Metoclopramide, metoclopramide] | 0.74 ± 0.08 | 0.74 and 0.76 and 0.63 and 0.81 | not impacted | 0.61 ± 0.10 | – | – | – |
| – | CNC(=O)C(CCN1CCC(O)(c2ccc(Cl)cc2)CC1)(c1ccccc1)c1ccccc1 [N‐desmethyl loperamide] | 0.043 ± 0.018 | 0.058 and 0.035 and 0.056 and 0.021 | – | 0.020 ± 0.014 | 0.92 | 287 ± 88 | 0.44 |
